Among the data in ChEMBL document CHEMBL4422680, “Synthesis, biological evaluation, and molecular docking study of novel allyl-retrochalcones as a new class of protein tyrosine phosphatase 1B inhibitors” (Bioorg Med Chem, 2019) are inhibition and IC50 values, retold here.

The first assay has as its target T1, Tyrosine-protein phosphatase non-receptor type 1 (Homo sapiens) (UniProt P18031).
T1 sequence (whole entry): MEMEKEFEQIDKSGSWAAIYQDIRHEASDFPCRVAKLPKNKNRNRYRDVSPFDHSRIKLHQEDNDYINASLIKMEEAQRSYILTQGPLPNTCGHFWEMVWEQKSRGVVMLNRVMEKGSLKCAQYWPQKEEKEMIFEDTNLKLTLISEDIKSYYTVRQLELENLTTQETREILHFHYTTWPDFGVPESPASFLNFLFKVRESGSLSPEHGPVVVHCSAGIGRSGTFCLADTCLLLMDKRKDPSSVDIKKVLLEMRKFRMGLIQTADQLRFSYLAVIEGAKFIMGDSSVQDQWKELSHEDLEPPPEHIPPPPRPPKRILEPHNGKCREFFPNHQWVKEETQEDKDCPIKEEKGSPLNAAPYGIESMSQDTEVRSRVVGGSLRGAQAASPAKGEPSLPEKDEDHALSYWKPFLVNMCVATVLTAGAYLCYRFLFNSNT
Kind of assay: (§1) Inhibition of recombinant human PTP1B using pNPP as substrate measured after 30 mins.
Conditions: not given; call rule not given here
Turning to `C=CCc1cc(/C=C/C(=O)c2ccc(OCC(=O)OCC)cc2)c(OC)cc1O`, the inhibition result was “Dose-dependent effect”.

Consider `C=CCc1cc(/C=C/C(=O)c2ccc(N(C)C)cc2)c(OC)cc1O`, for which the inhibition entry was “Dose-dependent effect”.

In the case of `C=CCc1cc(/C=C/C(=O)c2ccc(OCCCCC(=O)O)cc2)c(OC)cc1O`, the inhibition entry is “Dose-dependent effect”.

For `C=C(C)[C@H](C)c1cc(/C=C/C(=O)c2ccc(O)cc2)c(OC)cc1O` [LICOCHALCONE E], the inhibition entry was “Dose-dependent effect”.

Consider `C=CCc1cc(/C=C/C(=O)c2ccc(OC(=O)c3ccccc3)cc2)c(OC)cc1O`, for which the inhibition entry was “Dose-dependent effect”.

For `C=CCc1cc(/C=C/C(=O)c2ccc(N(CC=C)CC=C)cc2)c(OC)cc1O`, the inhibition result was “Dose-dependent effect”.

With `C=CCc1cc(/C=C/C(=O)c2ccc(OCC=C(C)C)cc2O)c(OC)cc1O`, the inhibition entry was “Dose-dependent effect”.

Regarding `C=CCc1cc(/C=C/C(=O)c2cccc(N3CCCCC3)c2)c(OC)cc1O`, the inhibition result is “Dose-dependent effect”.

On to `C=CCc1cc(/C=C/C(=O)c2ccc(OC(=O)c3ccc(Br)cc3)cc2)c(OC)cc1O`, for which the inhibition entry was “Dose-dependent effect”.

As for `C=CCc1cc(/C=C/C(=O)c2ccccc2N2CCCCC2)c(OC)cc1O`, the inhibition entry is “Dose-dependent effect”.

Regarding `C=CCc1cc(/C=C/C(=O)c2ccc(N3CCCCC3)cc2)c(OC)cc1O`, the inhibition result was “Dose-dependent effect”.

Regarding `C=CC(C)(C)c1cc(/C=C/C(=O)c2ccc(O)cc2)c(OC)cc1O`, the inhibition entry was “Dose-dependent effect”.

Take `C=CCc1cc(/C=C/C(=O)c2ccc(O)cc2)c(OC)cc1OC1CCCCO1` (stereo unspecified): the inhibition entry was “Dose-dependent effect”.

Take `C=CCc1cc(/C=C/C(=O)c2ccc(OC)cc2)c(OC)cc1O`: the inhibition result was “Dose-dependent effect”.

With `C=CCc1cc(/C=C/C(=O)c2ccc(OC)c(C(C)C(=C)C)c2)c(OC)cc1O` (stereo unspecified), the inhibition result was “Dose-dependent effect”.

As for `C[C@H]1[C@H](C)CC[C@]2(C(=O)O)CC[C@]3(C)C(=CC[C@@H]4[C@@]5(C)CC[C@H](O)C(C)(C)[C@@H]5CC[C@]43C)[C@H]12`, the inhibition result is “Dose-dependent effect”.

On to `C=CCc1cc(/C=C/C(=O)c2cccc(N(C)C)c2)c(OCc2ccccc2)cc1O`, for which the inhibition result is “Dose-dependent effect”.

Regarding `C=CCc1cc(/C=C/C(=O)c2ccc(OCC=C(C)C)cc2)c(OC)cc1O`, the inhibition entry was “Dose-dependent effect”.

For `C=CCc1cc(/C=C/C(=O)c2cccc(N(C)C)c2)c(OC(C)C)cc1O`, the inhibition result was “Dose-dependent effect”.

Take `C=CCc1cc(/C=C/C(=O)c2cccc(OC)c2)c(OC)cc1O`: the inhibition result was “Dose-dependent effect”.

On to `C=CCOc1ccc(C(=O)/C=C/c2cc(CC=C)c(O)cc2OC)cc1`, for which the inhibition entry is “Dose-dependent effect”.

For `C=CCc1cc(/C=C/C(=O)c2ccc(N3CCOCC3)cc2)c(OC)cc1O`, the inhibition entry is “Dose-dependent effect”.

In the case of `C=CCc1cc(/C=C/C(=O)c2ccc(OCC(=O)O)cc2)c(OC)cc1O`, the inhibition entry is “Dose-dependent effect”.

`C=CCc1cc(/C=C/C(=O)c2ccc(-n3cccn3)cc2)c(OC)cc1O`: the inhibition entry was “Dose-dependent effect”.

As to `C=CCc1cc(/C=C/C(=O)c2ccc(OC)cc2O)c(OC)cc1O`, the inhibition result was “Dose-dependent effect”.

For `C=CCc1cc(/C=C/C(=O)c2ccccc2N(C)C)c(OC)cc1O`, the inhibition entry was “Dose-dependent effect”.

As for `C=CCc1cc(/C=C/C(=O)c2ccc(O)cc2)c(OC)cc1O`, the inhibition result is “Dose-dependent effect”.

With `C=CCOc1ccc(C(=O)/C=C/c2cc(CC=C)c(O)cc2OC)c(O)c1`, the inhibition entry was “Dose-dependent effect”.

As to `C=CCc1cc(/C=C/C(=O)c2ccc(OC)c(CC=C)c2)c(OC)cc1O`, the inhibition entry is “Dose-dependent effect”.

Consider `C=CCOc1ccc(C(=O)/C=C/c2cc(CC=C)c(O)cc2OC)c(OC)c1`, for which the inhibition result was “Dose-dependent effect”.

Take `C=CCc1cc(/C=C/C(=O)c2ccc(OCCCCC(=O)OCC)cc2)c(OC)cc1O`: the inhibition result is “Dose-dependent effect”.

As to `C=CCc1cc(/C=C/C(=O)c2ccc(OC(=O)c3ccc(C(C)(C)C)cc3)cc2)c(OC)cc1O`, the inhibition entry was “Dose-dependent effect”.

Turning to `C=CCc1cc(/C=C/C(=O)c2ccc(OCCCC(=O)OCC)cc2)c(OC)cc1O`, the inhibition result is “Dose-dependent effect”.

Consider `C=CCc1cc(/C=C/C(=O)c2ccc(OC)c(CC=C(C)C)c2)c(OC)cc1O`, for which the inhibition entry is “Dose-dependent effect”.

For the molecule `C=CCc1cc(/C=C/C(=O)c2cccc(N(CC=C)CC=C)c2)c(OC)cc1O`, the inhibition result is “Dose-dependent effect”.

Consider `C=CCc1cc(/C=C/C(=O)c2ccc(OCC)cc2)c(OC)cc1O`, for which the inhibition result is “Dose-dependent effect”.

In the case of `C=CCc1cc(/C=C/C(=O)c2cc3c(cc2N(C)C)OCO3)c(OC)cc1O`, the inhibition result is “Dose-dependent effect”.

The next assay addresses T2, Tyrosine-protein phosphatase non-receptor type 1 (Homo sapiens, UniProt P18031).
T2 sequence (P18031 whole entry): T1 sequence (whole entry)
The description is as §1.
Conditions: not given
For orientation: IC50 means the midpoint of a concentration-inhibition curve. With `C=CCOc1ccc(C(=O)/C=C/c2cc(CC=C)c(OC3CCCCO3)cc2OC)c(O)c1` (stereo unspecified), the IC50 result is given as “Not Active”.

Turning to `C=CCc1cc(/C=C/C(=O)c2cccc(O)c2)c(OC)cc1O`, the half-inhibitory concentration (IC50) result is given as “Not Active”.

Turning to `C=CCc1cc(/C=C/C(=O)c2cccc(NS(C)(=O)=O)c2)c(OC)cc1O`, the IC50 entry is “Not Active”.

The same assay, now with this note: read-out: IC50.
For `C=CCc1cc(/C=C/C(=O)c2ccc(OCC(=O)OCC)cc2)c(OC)cc1O`, the IC50 is 9.4 µM.

For `C=CCc1cc(/C=C/C(=O)c2ccc(N(C)C)cc2)c(OC)cc1O`, the IC50 was 6.9 µM.

Turning to `C=CCc1cc(/C=C/C(=O)c2ccc(OCCCCC(=O)O)cc2)c(OC)cc1O`, the half-maximal inhibitory concentration (IC50) worked out at 5.8 µM.

As for `C=C(C)[C@H](C)c1cc(/C=C/C(=O)c2ccc(O)cc2)c(OC)cc1O` [LICOCHALCONE E], the IC50 came out at 4 µM.

Consider `C=CCc1cc(/C=C/C(=O)c2ccc(OC(=O)c3ccccc3)cc2)c(OC)cc1O`, for which the IC50 came to 4.6 µM.

Regarding `C=CCc1cc(/C=C/C(=O)c2ccc(N(CC=C)CC=C)cc2)c(OC)cc1O`, the IC50 stood at 5.9 µM.

For the molecule `C=CCc1cc(/C=C/C(=O)c2ccc(OCC=C(C)C)cc2O)c(OC)cc1O`, the IC50 came out at 3 µM.

Regarding `C=CCc1cc(/C=C/C(=O)c2cccc(N3CCCCC3)c2)c(OC)cc1O`, the IC50 was determined as 7.2 µM.

Consider `C=CCc1cc(/C=C/C(=O)c2ccc(OC(=O)c3ccc(Br)cc3)cc2)c(OC)cc1O`, for which the IC50 was found to be 6.6 µM.

As for `C=CCc1cc(/C=C/C(=O)c2ccccc2N2CCCCC2)c(OC)cc1O`, the IC50 came to 9.5 µM.

Take `C=CCc1cc(/C=C/C(=O)c2ccc(N3CCCCC3)cc2)c(OC)cc1O`: the IC50 stood at 6.9 µM.

Take `C=CCc1cc(/C=C/C(=O)c2ccc(O)cc2)c(OC)cc1OC1CCCCO1` (stereo unspecified): the IC50 stood at 9.4 µM.

`C=CCc1cc(/C=C/C(=O)c2ccc(OC)cc2)c(OC)cc1O`: the concentration for half-maximal inhibition (IC50) was 7.4 µM.

For `C=CCc1cc(/C=C/C(=O)c2ccc(OC)c(C(C)C(=C)C)c2)c(OC)cc1O` (stereo unspecified), the half-maximal inhibitory concentration (IC50) turned out to be 5.4 µM.

Consider `C=CCc1cc(/C=C/C(=O)c2cccc(N(C)C)c2)c(OCc2ccccc2)cc1O`, for which the 50% inhibitory concentration (IC50) was 5 µM.

As for `C=CCc1cc(/C=C/C(=O)c2ccc(OCC=C(C)C)cc2)c(OC)cc1O`, the half-maximal inhibitory concentration (IC50) was 5.9 µM.

Turning to `C=CCc1cc(/C=C/C(=O)c2cccc(N(C)C)c2)c(OC(C)C)cc1O`, the IC50 was 6.9 µM.

For the molecule `C=CCc1cc(/C=C/C(=O)c2cccc(OC)c2)c(OC)cc1O`, the IC50 was determined as 14.6 µM.

`C=CCOc1ccc(C(=O)/C=C/c2cc(CC=C)c(O)cc2OC)cc1`: the IC50 is 5.4 µM.

With `C=CCc1cc(/C=C/C(=O)c2ccc(N3CCOCC3)cc2)c(OC)cc1O`, the IC50 was 12.3 µM.

`C=CCc1cc(/C=C/C(=O)c2ccc(OCC(=O)O)cc2)c(OC)cc1O`: the IC50 was determined as 12.6 µM.

As for `C=CCc1cc(/C=C/C(=O)c2ccc(-n3cccn3)cc2)c(OC)cc1O`, the IC50 worked out at 6.3 µM.

`C=CCc1cc(/C=C/C(=O)c2ccc(OC)cc2O)c(OC)cc1O`: the half-maximal inhibitory concentration (IC50) came out at 24.8 µM.

On to `C=CCc1cc(/C=C/C(=O)c2ccccc2N(C)C)c(OC)cc1O`, for which the IC50 worked out at 16.3 µM.

As to `C=CCc1cc(/C=C/C(=O)c2ccc(O)cc2)c(OC)cc1O`, the IC50 was determined as 12.9 µM.

In the case of `C=CCOc1ccc(C(=O)/C=C/c2cc(CC=C)c(O)cc2OC)c(O)c1`, the IC50 amounted to 6.5 µM.

Consider `C=CCc1cc(/C=C/C(=O)c2ccc(OC)c(CC=C)c2)c(OC)cc1O`, for which the IC50 was 10.9 µM.

Take `C=CCOc1ccc(C(=O)/C=C/c2cc(CC=C)c(O)cc2OC)c(OC)c1`: the IC50 stood at 3.9 µM.

Take `C=CCc1cc(/C=C/C(=O)c2ccc(OCCCCC(=O)OCC)cc2)c(OC)cc1O`: the half-inhibitory concentration (IC50) was 3.9 µM.

For the molecule `C=CCc1cc(/C=C/C(=O)c2ccc(OC(=O)c3ccc(C(C)(C)C)cc3)cc2)c(OC)cc1O`, the half-maximal inhibitory concentration (IC50) stood at 5 µM.

Take `C=CCc1cc(/C=C/C(=O)c2ccc(OCCCC(=O)OCC)cc2)c(OC)cc1O`: the IC50 came to 25.6 µM.

With `C=CCc1cc(/C=C/C(=O)c2ccc(OC)c(CC=C(C)C)c2)c(OC)cc1O`, the IC50 is 8.2 µM.

`C=CCc1cc(/C=C/C(=O)c2cccc(N(CC=C)CC=C)c2)c(OC)cc1O`: the half-maximal inhibitory concentration (IC50) came to 4.7 µM.

With `C=CCc1cc(/C=C/C(=O)c2ccc(OCCCC(=O)O)cc2)c(OC)cc1O`, the half-inhibitory concentration (IC50) was 32.8 µM.

Take `C=CCc1cc(/C=C/C(=O)c2ccc(OCC)cc2)c(OC)cc1O`: the IC50 is 5.3 µM.

As for `C=CCc1cc(/C=C/C(=O)c2cc3c(cc2N(C)C)OCO3)c(OC)cc1O`, the IC50 turned out to be 11.8 µM.
